Earlier results on 2 molecules are cited in US8907090B2, “Processes for preparing different forms of (S)-(+)-Clopidogrel bisulfate” (Cadila Healthcare Limited, priority 2003, dated 2014).

For data set [1], the system named is platelet aggregation. The conditions noted are these: comparison of enantiomers.
For data set [2] the following is noted: comparison of enantiomers.

As for `COC(=O)[C@H](c1ccccc1Cl)N1CCc2sccc2C1` (single isomer, unassigned) [dextrorotatory enantiomer], in data set [1], the antiaggregant platelet activity entry was “excellent antiaggregant platelet activity”.

`COC(=O)C(c1ccccc1Cl)N1CCc2sccc2C1` (single isomer, unassigned) [levorotatory enantiomer]: the antiaggregant platelet activity entry in data set [1] was “less active”. Further, the tolerance result in data set [2] is recorded as “less tolerated”.
